Reference: ChEMBL document CHEMBL5032530, “Discovery of Benzocyclic Sulfone Derivatives as Potent CXCR2 Antagonists for Cancer Immunotherapy” (J Med Chem, 2021)

Assays:
[1] = system: Panc02; test: Antitumour activity against mouse Panc02 cells xenografted in mouse assessed as tumour growth inhibition at 30 mg/kg, po bid […]; format: functional; conditions: read-out: TGI
[2] = Half life in ICR mouse at 3 mg/kg, iv measured upto 48 hrs; format: ADME, organism-based; conditions: in vivo
[3] = AUC (0 to t) in ICR mouse at 3 mg/kg, iv measured upto 48 hrs; format: ADME, organism-based; parameters: route intravenous, dose 3 mg/kg, time <=48; conditions: in vivo
[4] = molecular target: C-X-C chemokine receptor type 3 (Homo sapiens) (UniProt P49682); test: Antagonist activity against CXCR3 (unknown origin) assessed as inhibition of beta-arrestin 2 recruitment at 10 microM by beta arrestin assay relative to control; format: functional; parameters: scale not given: the % may be the effect or the level left
Sequence of C-X-C chemokine receptor type 3 (Homo sapiens) (P49682 whole entry): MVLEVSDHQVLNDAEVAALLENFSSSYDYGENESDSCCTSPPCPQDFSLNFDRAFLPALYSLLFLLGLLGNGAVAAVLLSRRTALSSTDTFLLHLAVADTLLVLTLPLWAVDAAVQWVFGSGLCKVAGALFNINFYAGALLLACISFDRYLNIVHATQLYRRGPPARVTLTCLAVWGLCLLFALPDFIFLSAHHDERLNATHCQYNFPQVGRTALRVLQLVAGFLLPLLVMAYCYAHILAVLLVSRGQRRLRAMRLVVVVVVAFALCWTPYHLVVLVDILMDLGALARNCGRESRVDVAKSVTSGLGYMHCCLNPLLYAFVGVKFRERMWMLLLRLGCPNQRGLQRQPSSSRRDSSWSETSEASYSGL

[5] = Clearance in ICR mouse at 3 mg/kg, iv measured upto 48 hrs; format: ADME, organism-based; conditions: in vivo
[6] = molecular target: C-C chemokine receptor type 1 (Homo sapiens) (UniProt P32246); test: Agonist activity against CCR1 (unknown origin) assessed as induction of beta-arrestin 2 recruitment at 10 microM by beta arrestin assay relative to control; format: functional
Sequence of C-C chemokine receptor type 1 (Homo sapiens) (P32246 whole entry): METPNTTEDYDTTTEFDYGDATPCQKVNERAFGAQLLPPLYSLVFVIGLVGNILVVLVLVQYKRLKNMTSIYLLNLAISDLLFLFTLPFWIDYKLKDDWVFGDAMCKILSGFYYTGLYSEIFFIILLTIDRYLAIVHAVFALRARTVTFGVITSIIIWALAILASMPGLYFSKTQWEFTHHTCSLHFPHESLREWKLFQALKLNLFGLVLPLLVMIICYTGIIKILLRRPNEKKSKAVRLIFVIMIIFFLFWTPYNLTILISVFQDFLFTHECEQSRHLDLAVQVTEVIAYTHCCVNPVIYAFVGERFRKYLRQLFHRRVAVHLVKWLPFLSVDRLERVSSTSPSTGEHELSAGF

[7] = AUC (0 to infinity) in ICR mouse at 30 mg/kg, po measured upto 48 hrs; format: ADME, organism-based; parameters: route oral, dose 30 mg/kg, time <=48; conditions: ICR, in vivo
[8] = molecular target: C-C chemokine receptor type 2 (Homo sapiens) (UniProt P41597); test: Agonist activity against CCR2 (unknown origin) assessed as induction of beta-arrestin 2 recruitment at 10 microM by beta arrestin assay relative to control; format: functional
Sequence of C-C chemokine receptor type 2 (Homo sapiens) (P41597 whole entry, looked up): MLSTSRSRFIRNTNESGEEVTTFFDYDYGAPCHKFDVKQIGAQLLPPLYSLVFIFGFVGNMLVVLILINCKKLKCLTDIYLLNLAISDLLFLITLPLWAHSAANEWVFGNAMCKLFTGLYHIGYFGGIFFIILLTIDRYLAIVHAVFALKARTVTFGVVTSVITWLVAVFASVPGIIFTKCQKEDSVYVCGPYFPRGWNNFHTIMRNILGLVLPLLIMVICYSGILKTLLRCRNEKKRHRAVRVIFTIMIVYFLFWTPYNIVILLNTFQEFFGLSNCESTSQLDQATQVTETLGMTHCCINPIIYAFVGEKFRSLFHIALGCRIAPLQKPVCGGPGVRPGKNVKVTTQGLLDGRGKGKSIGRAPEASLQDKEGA

[9] = system: Panc02; test: Antitumour activity against mouse Panc02 cells xenografted in mouse assessed as change in CD45 expressing immune cells infiltration into tumor tissue at 10 mg/kg, po bid measured after 15 days by flow cytometry analysis (reference value: 2.3%); format: functional; conditions: time 15 day
[10] = molecular target: C-C chemokine receptor type 5 (Homo sapiens) (UniProt P51681); test: Antagonist activity against CCR5 (unknown origin) assessed as inhibition of beta-arrestin 2 recruitment at 10 microM by beta arrestin assay relative to control; format: functional; parameters: scale not given: the % may be the effect or the level left
Sequence of C-C chemokine receptor type 5 (Homo sapiens) (P51681 whole entry, looked up): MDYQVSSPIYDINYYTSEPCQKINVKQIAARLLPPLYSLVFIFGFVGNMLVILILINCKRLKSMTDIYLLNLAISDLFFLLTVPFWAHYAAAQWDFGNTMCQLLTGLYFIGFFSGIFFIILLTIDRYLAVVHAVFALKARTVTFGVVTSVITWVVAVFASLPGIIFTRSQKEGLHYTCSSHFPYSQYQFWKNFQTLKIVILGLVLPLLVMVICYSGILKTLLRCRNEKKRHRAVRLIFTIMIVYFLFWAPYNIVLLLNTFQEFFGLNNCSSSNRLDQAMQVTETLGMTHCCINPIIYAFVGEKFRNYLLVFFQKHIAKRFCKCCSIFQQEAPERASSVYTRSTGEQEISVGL

[11] = molecular target: C-C chemokine receptor type 5 (Homo sapiens) (UniProt P51681); test: Agonist activity against CCR5 (unknown origin) assessed as induction of beta-arrestin 2 recruitment at 10 microM by beta arrestin assay relative to control; format: functional
[12] = system: Panc02; test: Antitumour activity against mouse Panc02 cells xenografted in mouse assessed as change in CD45 expressing immune cells infiltration into tumor tissue at 30 mg/kg, po bid measured after 15 days by flow cytometry analysis (reference value: 2.3%); format: functional; conditions: time 15 day
[13] = molecular target: C-C chemokine receptor type 7 (Homo sapiens) (UniProt P32248); test: Antagonist activity against CCR7 (unknown origin) assessed as inhibition of beta-arrestin 2 recruitment at 10 microM by beta arrestin assay relative to control; format: functional; parameters: scale not given: the % may be the effect or the level left
Sequence of C-C chemokine receptor type 7 (Homo sapiens) (P32248 whole entry): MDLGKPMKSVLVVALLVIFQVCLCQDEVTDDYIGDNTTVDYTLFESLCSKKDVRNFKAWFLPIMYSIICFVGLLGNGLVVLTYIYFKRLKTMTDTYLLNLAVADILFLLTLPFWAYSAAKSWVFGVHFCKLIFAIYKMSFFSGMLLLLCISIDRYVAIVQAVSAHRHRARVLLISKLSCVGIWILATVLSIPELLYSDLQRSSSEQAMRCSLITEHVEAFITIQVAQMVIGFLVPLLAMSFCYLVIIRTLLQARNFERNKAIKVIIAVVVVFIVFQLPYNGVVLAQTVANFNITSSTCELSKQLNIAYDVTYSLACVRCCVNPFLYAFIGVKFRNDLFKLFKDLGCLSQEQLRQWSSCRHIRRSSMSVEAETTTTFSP

**Q.** Which inhibition in vivo at 30 mg/kg [1] does the source give for Cc1c(F)cccc1NC(=O)Nc1ccc2c(c1O)S(=O)(=O)CCC2 here?
**A.** 61.4%

**Q.** And the half-life [2]?
**A.** 4.11 h

**Q.** What about the AUC(0-t) at 48 h [3] of the same compound?
**A.** 357 ng·h/mL

**Q.** What about the Activity [4] of the same compound?
**A.** < 10%

**Q.** What about the clearance [5] of the same compound?
**A.** 137 mL/min/kg

**Q.** What about the Activity [6] of the same compound?
**A.** < 10%

**Q.** And the AUC(0-inf) [7]?
**A.** 229 ng·h/mL

**Q.** And the Activity [8]?
**A.** < 10%

**Q.** What about the Activity [9] of the same compound?
**A.** 30.3%

**Q.** And the Activity [10]?
**A.** < 10%

**Q.** And the Activity [11]?
**A.** < 10%

**Q.** What about the Activity [12] of the same compound?
**A.** 42.3%

**Q.** What about the Activity [13] of the same compound?
**A.** 20%
